Measured values reported in patent publication US7834030B2, “Phenyl-[1,2,4]-oxadiazol-5-one derivatives, pharmaceutical compositions and therapeutic use thereof” (Sanofi-Aventis, priority 2005, dated 2010).

target: T1, human PPARdelta (Homo sapiens, UniProt Q03181); experiment: cellular PPARdelta assay (GAL4 luciferase reporter, stably transfected HEK cell line); format: cell-based
T1 construct: human PPARdelta receptor (amino acids S139-Y441); expressed in transfected cells; plasmid pcDNA3
T1 sequence (Q03181 139-441): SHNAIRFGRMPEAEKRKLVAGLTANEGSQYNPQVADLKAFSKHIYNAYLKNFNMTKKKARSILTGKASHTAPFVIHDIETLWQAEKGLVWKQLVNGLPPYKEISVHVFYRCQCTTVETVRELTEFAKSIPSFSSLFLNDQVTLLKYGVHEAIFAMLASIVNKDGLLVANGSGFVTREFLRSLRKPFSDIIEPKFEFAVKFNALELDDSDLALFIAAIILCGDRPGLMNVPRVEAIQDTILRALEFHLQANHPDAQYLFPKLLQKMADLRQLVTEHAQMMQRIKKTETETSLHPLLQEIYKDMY
Protocol: The PPARalpha reporter cell line is cultivated to 80% confluence in DMEM (# 41965-039, Invitrogen) which is mixed with the following additions: 10% cs-FCS (fetal calf serum; #SH-30068.03, Hyclone), 0.5 mg/ml zeocin (#R250-01, Invitrogen), 0.5 mg/ml G418 (#10136-027, Invitrogen), 1% penicillin-streptomycin solution (#15140-122, Invitrogen) and 2 mM L-glutamine (#25030-024, Invitrogen). The cultivation takes place in standard cell culture bottles (# 353612, Becton Dickinson) in a cell culture incubator at 37° C. in the presence of 5% CO2. The 80%-confluent cells are washed once with 15 ml of PBS (#14190-094, Invitrogen), treated with 3 ml of trypsin solution (#25300-054, Invitrogen) at 37° C. for 2 min, taken up in 5 ml of the DMEM described and counted in a cell counter. After dilution to 500.000 cells/ml, 35,000 cells are seeded in each well of a 96 well microtiter plate with a clear plastic base (#3610, Corning Costar). The plates are incubated in the cell culture incubator at 37° C. and 5% CO2 for 24 h.
PPARalpha agonists to be tested are dissolved in DMSO in a concentration of 10 mM. This stock solution is diluted in DMEM (#41965-039, Invitrogen) which is mixed with 5% cs-FCS (#SH-30068.03, Hyclone), 2 mM L-glutamine (#25030-024, Invitrogen) and the previously described antibiotics (zeocin, G418, penicillin and streptomycin). Test substances are tested in 11 different concentrations in the range from 10 μM to 100 pM.
The medium of the PPARalpha reporter cell line seeded on day 1 is completely removed by aspiration, and the test substances diluted in medium are immediately added to the cells. The dilution and addition of the substances is carried out by a robot (Beckman FX). The final volume of the test substances diluted in medium is 100 μl per well of a 96 well microtiter plate. The DMSO concentration in the assay is less than 0.1% v/v in order to avoid cytotoxic effects of the solvent.
The PPARalpha reporter cells treated with the test substances are removed from the incubator, and the medium is aspirated off. The cells are lyzed by pipetting 50 μl of Bright Glo reagent (from Promega) into each well of a 96 well microtiter plate. After incubation at room temperature in the dark for 10 minutes, the microtiter plates are measured in the luminometer (Trilux from Wallac). The measuring time for each well of a microtiter plate is 1 sec.
The raw data from the luminometer are transferred into a Microsoft Excel file. Dose-effect plots and EC50 values of PPAR agonists are calculated using the XL.Fit program as specified by the manufacturer (IDBS). […] The compounds of the present invention of formula I activate the PPARalpha receptor.
The potency of substances which bind to human PPARdelta and activate it in an agonistic manner was analyzed using a stably transfected HEK cell line (HEK=human embryo kidney) which is referred to here as PPARdelta reporter cell line. In analogy to the assay described for PPARalpha, the PPARdelta reporter cell line also contains two genetic elements, a luciferase reporter element (pdeltaM-GAL4-Luc-Zeo) and a PPARdelta fusion protein (GR-GAL4-humanPPARdelta-LBD) which mediates expression of the luciferase reporter element depending on a PPARdelta ligand. The stably and constitutively expressed fusion protein GR-GAL4-humanPPARdelta-LBD binds in the cell nucleus of the PPARdelta reporter cell line via the GAL4 protein portion to the GAL4 DNA binding motifs 5′-upstream of the luciferase reporter element which is stably integrated in the genome of the cell line. There is only little expression of the luciferase reporter gene in the absence of a PPARdelta ligand if fatty acid-depleted fetal calf serum (cs-FCS) is used in the assay. PPARdelta ligands bind and activate the PPARdelta fusion protein and thereby stimulate expression of the luciferase reporter gene. The luciferase which is formed can be detected by means of chemiluminescence via an appropriate substrate. […]

Row | Structure (SMILES) | EC50 [nM]
1 | Cc1nc(-c2ccc(C(F)(F)F)cc2)sc1C(OCc1ccc(-c2noc(=O)[nH]2)c(Cl)n1)C(F)(F)F (racemic) [Example 27, 3-(2-Chloro-6-{2,2,2-trifluoro-1-[4-methyl-2-(4-trifluoromethyl-phenyl)-thiazol-5-yl]-ethoxymethyl}-pyridin-3-yl)-4H-[1,2,4]oxadiazol-5-one] | 17
2 | Cc1nc(-c2ccc(C(F)(F)F)cc2)sc1C(Cc1ccccn1)Oc1ccc(-c2noc(=O)[nH]2)c(Cl)c1 (racemic) [Example 10, 3-(2-Chloro-4-{1-[4-methyl-2-(4-trifluoromethyl-phenyl)-thiazol-5-yl]-2-pyridin-2-yl-ethoxy}-phenyl)-4H-[1,2,4]oxadiazol-5-one] | 6
3 | CCC(Oc1ccc(-c2noc(=O)[nH]2)c(OC)c1)c1sc(-c2ccc(C(F)(F)F)cc2)nc1CN1CCC(C(F)(F)F)CC1 (racemic) [Example 42, 3-(2-Methoxy-4-{1-[2-(4-trifluoromethyl-phenyl)-4-(4-trifluoromethyl-piperidin-1-ylmethyl)-thiazol-5-yl]-propoxy}-phenyl)-4H-1,2,4-oxadiazol-5-one] | 8
4 | Cc1nc(-c2ccc(C(F)(F)F)cc2)sc1C(OCc1ccc(-c2noc(=O)[nH]2)c(F)c1)C(F)(F)F (racemic) [Example 22, 3-(2-Fluoro-4-{2,2,2-trifluoro-1-[4-methyl-2-(4-trifluoromethyl-phenyl)-thiazol-5-yl]-ethoxymethyl}-phenyl)-4H-[1,2,4]oxadiazol-5-one] | 17
5 | CCC(Oc1ccc(-c2noc(=O)[nH]2)c(F)c1)c1sc(-c2ccc(C(F)(F)F)cc2)nc1C (racemic) [Example 35, 3-(2-Fluoro-4-{1-[4-methyl-2-(4-trifluoromethyl-phenyl)-thiazol-5-yl]-propoxy}-phenyl)-4H-1,2,4-oxadiazol-5-one] | 4
6 | Cc1nc(-c2ccc(C(F)(F)F)cc2)sc1C(OCc1ccc(-c2noc(=O)[nH]2)cc1)C(F)(F)C1CC1 (racemic) [Example 32, 3-(4-{2-Cyclopropyl-2,2-difluoro-1-[4-methyl-2-(4-trifluoromethyl-phenyl)-thiazol-5-yl]-ethoxymethyl}-phenyl)-4H-[1,2,4]oxadiazol-5-one] | 127
7 | Cc1nc(-c2ccc(C(F)(F)F)cc2)sc1C(OCc1ccc(-c2noc(=O)[nH]2)c2cccnc12)C(F)(F)F (racemic) [Example 25, 3-(8-{2,2,2-Trifluoro-1-[4-methyl-2-(4-trifluoromethyl-phenyl)-thiazol-5-yl]-ethoxymethyl}-quinolin-5-yl)-4H-[1,2,4]oxadiazol-5-one] | 3

The next compounds have a lower EC50 than those just listed; values first:

Row | EC50 [nM] | Structure (SMILES)
8 | 1 | CCC(Oc1ccc(-c2noc(=O)[nH]2)c(OCC(F)(F)F)c1)c1sc(-c2ccc(C(F)(F)F)cc2)nc1C (racemic) [Example 48, 3-[4-{1-[4-Methyl-2-(4-trifluoromethyl-phenyl)-thiazol-5-yl]-propoxy}-2-(2,2,2-trifluoro-ethoxy)-phenyl]-4H-1,2,4-oxadiazol-5-one]
9 | 0.3 | CC[C@@H](Oc1ccc(-c2noc(=O)[nH]2)c(OC(F)F)c1)c1sc(-c2ccc(C(F)(F)F)cc2)nc1CN1CCC(C(F)(F)F)CC1 [(+)-45, (+)-3-(2-Difluoromethoxy-4-{(R)-1-[2-(4-trifluoromethyl-phenyl)-4-(4-trifluoromethyl-piperidin-1-ylmethyl)-thiazol-5-yl]-propoxy}-phenyl)-4H-1,2,4-oxadiazol-5-one]
10 | 1 | CCCCC(Cc1ccc(-c2noc(=O)[nH]2)c(F)c1)c1sc(-c2ccc(C(F)(F)F)cc2)nc1C (racemic) [Example 34, 3-(2-Fluoro-4-{2-[4-methyl-2-(4-trifluoromethyl-phenyl)-thiazol-5-yl]-hexyl}-phenyl)-4H-[1,2,4]oxadiazol-5-one]
11 | 0.5 | CCC(Oc1ccc(-c2noc(=O)[nH]2)c(OC(F)F)c1)c1sc(-c2ccc(C(F)(F)F)cc2)nc1C (racemic) [Example 37, 3-(2-Difluoromethoxy-4-{1-[4-methyl-2-(4-trifluoromethyl-phenyl)-thiazol-5-yl]-propoxy}-phenyl)-4H-1,2,4-oxadiazol-5-one]
12 | 0.2 | CCC(Oc1ccc(-c2noc(=O)[nH]2)c(Cl)c1)c1sc(-c2ccc(C(F)(F)F)cc2)nc1C (racemic) [Example 4, 3-(2-Chloro-4-{1-[4-methyl-2-(4-trifluoromethyl-phenyl)-thiazol-5-yl]-propoxy}-phenyl)-4H-[1,2,4]oxadiazol-5-one]
13 | 1 | CCC(Oc1ccc(-c2noc(=O)[nH]2)c(C2CC2)c1)c1sc(-c2ccc(C(F)(F)F)cc2)nc1C (racemic) [Example 16, 3-(2-Cyclopropyl-4-{1-[4-methyl-2-(4-trifluoromethyl-Phenyl)-thiazol-5-yl]-propoxy}-phenyl)-4H-[1,2,4]oxadiazol-5-one]
14 | 1 | Cc1nc(-c2ccc(C(F)(F)F)cc2)sc1C(Oc1ccc(-c2noc(=O)[nH]2)c(Cl)c1)C(F)(F)F (racemic) [Example 20, 3-(2-Chloro-4-{2,2,2-trifluoro-1-[4-methyl-2-(4-trifluoromethyl-phenyl)-thiazol-5-yl]-ethoxy}-phenyl)-4H-[1,2,4]oxadiazol-5-one]
15 | 1 | CC[C@@H](Oc1cc(OC)c(-c2noc(=O)[nH]2)cc1F)c1sc(-c2ccc(C(F)(F)F)cc2)nc1C [(+)-40, (+)-3-(5-Fluoro-2-methoxy-4-{(R)-1-[4-methyl-2-(4-trifluoromethyl-phenyl)-thiazol-5-yl]-propoxy}-phenyl)-4H-1,2,4-oxadiazol-5-one]
